The values below come from publication PMC7070709, “Design, Synthesis, and In Vitro Evaluation of Hydroxybenzimidazole-Donepezil Analogues as Multitarget-Directed Ligands for the Treatment of Alzheimer’s Disease” (Molecules, 2020).

The conditions of data set [1]: 50% w/w DMSO/water, I = 0.1 M KCl, 25.0 °C; cited from earlier work.
Data set [2] can be described thus: Cu(II) chelation by potentiometry. Type of data set: physicochemical. The conditions noted are these: pH 7.4; read-out: conditional dissociation constant (K´d) for the copper complex. The source says: The metal chelating ability of hybrids 7 and 12, due to the BIM bidentate unity with (N,O) coordination mode, was studied by potentiometry. Figure 3A,B show a change in the deprotonation profile of the ligand titration curves due to the presence of the metal ions. In fact, the curves for the Cu(II)/L systems lie well below that of the ligand, while for the Zn(II)/L systems stay under for a > −1 (compound 7) or a > 0 (compound 12), thus supporting the formation of 1:1 and 1:2 M/L ratio complexes with the deprotonated and mono-protonated forms of the ligand and with relative metal dependent stability order (Cu > Zn). Table 1 contains the equilibrium models obtained from the fitting analysis of the potentiometric curves by program Hyperquad. In these equilibrium models, which the coordination core of the compounds integrates the bidentate (N,O) BIM moiety, MHL and MH2L2 correspond to species with the ligand containing one protonated nitrogen atom at the piperazine moiety, ML and ML2 correspond to complexes involving the completely deprotonated form of the ligand while MH-1L2 are mixed ligand-hydroxo metal complexes.
Solutions: the aqueous copper (CuCl2, 0.015 M) and zinc (ZnCl2, 0.0156 M) stock solutions for potentiometric equilibrium studies were prepared from 1000 ppm standards (Titrisol) and their metal content was evaluated by atomic absorption. The titrant solution (0.1 M KOH) was obtained from a carbonate-free commercial concentrate (Titrisol) and standardized by potentiometric titration with potassium hydrogen phthalate. The titrant solution was discarded whenever the percentage of carbonate (Gran’s method) was about 0.5% of the total amount of base.
Measurements: compounds 7 and 12 were titrated in 50% (w/w) DMSO/H2O medium, at T = 25.0 ± 0.1 °C and ionic strength (I) 0.1 M KCl, using 0.1 M KOH as titrant. Both glass and Ag/AgCl reference electrodes were previously conditioned in DMSO/H2O mixtures with increasing amounts of DMSO and the response of the glass electrode was controlled by strong acid–strong base (HCl/KOH) calibrations with the determination of the Nernst parameters by Gran’s method. […] All titrations were performed in duplicate and under the stated experimental conditions the pKw value (13.6) was determined and subsequently used in the computations. The stepwise protonation constant of the ligand, Ki = [HiL]/([Hi–1L][H]), and the overall metal–complex stability constants, βMmHhLl = [MmHhLl]/([M]^m[H]^h[L]^l), were calculated by fitting the potentiometric titration data with Hyperquad 2008 [26]. The metal hydrolysis constants were determined under the defined experimental conditions (I = 0.1 M KCl, 50% w/w DMSO/H2O, T = 25.0 ± 0.1 °C) and the following values of stability constants were included in the fitting of experimental data towards the equilibrium models related to the Cu^2+/L and Zn^2+/L systems: log βCu2H−2 = −9.99; log βZnH−2 = −14.79, log βZnH−3 = −23.48. Species distribution curves were plotted with the Hyss program.

Another data set concerns the target T1, Aβ1–42 (Homo sapiens, UniProt P05067).
T1 construct: Aβ1–42 (40 μM) was incubated at 37 °C, for 24 h with or without Cu(II) (40 μM)
The arrangement: method as in PMID 32171933. The conditions noted are these: footnote e; cited from earlier work.

For data set [3], the target named is T2, Aβ1–42 with Cu(II) (Homo sapiens, UniProt P05067).
T2 construct: Aβ1–42 (40 μM) was incubated at 37 °C, for 24 h with or without Cu(II) (40 μM)
T2 sequence (P05067 672-713): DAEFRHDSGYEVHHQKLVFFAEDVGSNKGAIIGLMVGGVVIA
The arrangement: method as in PMID 32171933. The conditions noted are these: copper 40 µM; footnote e; cited from earlier work.

For data set [4] the following is noted: pH 7.4, CL/CM = 10, CM = 10^−6 M; cited from earlier work.
The conditions of data set [5]: pH 7.4, CL/CM = 10, CM = 10^−6 M; cited from earlier work. This is another data set of the same source.
Data set [6] concerns the target T3, AChE (type VI-S, from electric eel) (Electrophorus electricus, UniProt O42275).
T3 construct: purchased type VI-S
The conditions noted are these: read-out: TcAChE Inhibition IC50; cited from earlier work.

In data set [7] the target is T2, Aβ1–42 with Cu(II). As to the kind of experiment: Inhibition of Cu-induced Aβ1–42 aggregation (thioflavin T fluorescence). Type of data set: biochemical. As for the experimental part: The anti-amyloidogenic capacity of the compounds was also evaluated in vitro, in the absence and presence of Cu(II), based on the measurement of the fluorescence emission of Thioflavin T (ThT), a stain known by its Aβ fibril binding capacity. This binding interaction can be analyzed by fluorimetry, since the presence of ThT-fibrils increases the absorbance and the emission of the ThT dye, and it also induces red shifts on the absorbance (from 385 to 446 nm) and emission peaks (from 445 to 485 nm). All the measurements were performed after incubation (24 h, 37 °C) of the self-mediated and Cu^2+-induced Aβ aggregates in the presence/absence of the compounds under evaluation.
Herein, due to solubility problems of some compounds in the phosphate buffer (0.215 M, pH 8.0) of the working medium, the assays were carried out in the presence of 40 μM concentration of inhibitor and 20 μM in the case of compound 4, instead of 80 μM as previously reported. […] The activity dependence on ligand structural features may be mainly explained by the different ability for intercalation into the fibrils, as already assumed for other inhibitors. […] The data obtained for compounds 6 and 7 indicate that the presence of R1 = F, -NO2 substituents in the BIM have some small positive effect on the inhibition of Aβ aggregation.
The Aβ peptide was treated with 1,1,1,3,3,3-hexafluoropropan-2-ol (HFIP) and dissolved in a CH3CN/Na2CO3 (300 μM)/NaOH (250 μM) (48.3:48.3:4.3, v/v/v) mixture in order to have a stable stock solution, avoiding self-aggregation of Aβ1–42. Then, the prepared 500 μM solution was diluted at 40 μM in phosphate buffer (0.215 M, pH 8.0).
The solutions of the tested compounds were prepared in MeOH (1 mg/mL), being further diluted in phosphate buffer to a concentration of 480 μM. For copper-induced aggregation studies, a solution of CuCl2 240 μM was prepared from a stock standard solution (0.015 M). To perform the assays for the Aβ1–42 aggregation inhibition, a reported method, based on the fluorescence emission of thioflavin T (ThT), was followed. Aβ1–42 (40 μM) was incubated at 37 °C, for 24 h with or without Cu(II) (40 μM) in a phosphate buffer in presence or absence of the single ligand (40 μM and 20 μM for compound 4). Then, the samples were added to a 96-well plate with […] of 5 μM ThT in 50 mM glycine-NaOH (pH 8.5) buffer. Blank samples were prepared without the peptide for each concentration. The ThT fluorescence was measured at 446 nm (excitation) and 485 nm (emission). The inhibition percentage of aggregation was calculated by Equation (2), in which IFi and IF0 corresponded to the fluorescence intensities, in the presence and in the absence of the tested compound, subtracted of the fluorescence intensities due to the respective blanks.
The reported values were obtained as the mean ± SEM of duplicate of three different experiments.

T1 sequence (P05067 672-713): as above
T3 sequence (O42275 24-633): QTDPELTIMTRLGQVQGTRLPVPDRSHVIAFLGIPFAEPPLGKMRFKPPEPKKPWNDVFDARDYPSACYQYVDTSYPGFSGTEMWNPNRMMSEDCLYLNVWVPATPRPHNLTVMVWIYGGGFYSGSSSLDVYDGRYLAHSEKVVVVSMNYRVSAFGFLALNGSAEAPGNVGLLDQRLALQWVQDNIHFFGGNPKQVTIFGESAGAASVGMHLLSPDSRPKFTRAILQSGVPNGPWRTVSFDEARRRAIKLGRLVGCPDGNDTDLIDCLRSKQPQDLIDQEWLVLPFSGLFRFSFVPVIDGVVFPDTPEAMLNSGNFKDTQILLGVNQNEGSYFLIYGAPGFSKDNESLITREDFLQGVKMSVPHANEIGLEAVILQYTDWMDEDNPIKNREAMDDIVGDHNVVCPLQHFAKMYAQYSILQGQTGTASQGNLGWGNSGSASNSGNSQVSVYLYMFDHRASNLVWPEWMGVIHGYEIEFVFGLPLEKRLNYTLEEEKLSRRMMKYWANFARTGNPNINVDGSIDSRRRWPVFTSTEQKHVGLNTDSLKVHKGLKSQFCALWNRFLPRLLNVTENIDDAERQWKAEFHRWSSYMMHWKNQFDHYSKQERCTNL

`O=C(NCC1CCN(Cc2ccccc2)CC1)c1cccc2[nH]c(-c3ccccc3O)nc12` [Compound 5]: in data set [1], the “log K1, stepwise protonation constant (011)” value is listed as 8.98(2); the “log K2, stepwise protonation constant (021)” value is 7.78(4); the “log K3, stepwise protonation constant (031)” value is on record as 2.86(5). Besides, the Kd in data set [2] stood at 0.000254 µM. Besides, at Aβ1–42, the “Aβ1–42 Aggregation Inhibition, Self-Induced” value was 38.6 ^e %. Moreover, on Aβ1–42 with Cu(II) [3], the “Aβ1–42 Aggregation Inhibition, Cu-Induced” value is reported as 58.9 ^e %. For the same molecule, the “pZn (pM = −log[M])” value in data set [4] is given as 6.4. The “pCu (pM = −log[M])” value in data set [5] is listed as 14.3. Also, the half-inhibitory concentration (IC50) in data set [6] was 9 ± 1 µM. In addition, the “increase on Cu-induced Aβ aggregation (inhibition) relative to the self-induced one” value at Aβ1–42 with Cu(II) [7] is reported as “more than 50%”.
